Entries after “also recorded” stand apart in the source; their conditions may differ.
Experiments:
[1] = cited from earlier work
[2] = rats and dogs, cited from earlier work
[3] = cited from earlier work; remark: listed apart in the source
Water solubility = type: physicochemical
Experimental: Detailed SAR studies of PTL were performed to better understand the basic chemistry required to mediate anti-leukemia activity. […] In biological systems, the consequences of this reactivity are most prevalent for free thiols and cysteine residues. […] A series of PTL analogs was previously prepared with the goal of creating a more therapeutically useful derivative (Neelakantan et al., 2009). […] In addition, DMAPT retains virtually identical anti-leukemia properties as PTL, including the ability to selectively target LSCs. […] Based on these findings, DMAPT has advanced to phase 1 clinical trials, and is currently being evaluated in patients with advanced hematologic malignancies. DMAPT and certain PTL analogs are disclosed in U.S. Pat. Nos. 7,312,242 and 7,678,904, each of which is incorporated herein by reference.
The predicted poor oral bioavailability likely results from low aqueous solubility, since this causes a low dissolution-rate, which is often the rate-limit step during oral drug absorption. Fleisher et al., Improved oral drug delivery: solubility limitations overcome by the use of prodrugs. Adv Drug Deliv Rev, 19:115-130, 1996; Taylor, Improved passive oral drug delivery via prodrugs. Adv Drug Deliv Rev, 19:131-148, 1996. Furthermore, low water solubility can itself be a source of toxicity, due to precipitation of the drug, causing crystalluria. […]

primary leukemia cells = test: Cell viability assay (Annexin V/7-AAD flow cytometry); type: cell-based, human; conditions: for concentration achieving efficient induction of cell death: 24 h exposure, FIG. 3B; for anti-leukemia activity compared to PTL (in words): primary AML specimens, FIG. 2
Experimental: (§1) Primary leukemia cells were treated with varying concentrations of 1, 3 or 4 for six hours, followed by lysis and analysis by immunoblot. Inhibition of NF-κB activity was assessed by measuring phosphorylation of the NF-κB p65 subunit at Ser-536. […] To further evaluate the cytoxicity of 3 and 4, cell viability was measured following 24 h exposure to each compound. […] To achieve a similar degree of cell death with 4, treatment at 20-30 μM was required, in good agreement with the NF-κB phosphorylation analysis shown in FIG. 3A. Thus, while 3 and 4 retain the biological properties of 1, the activity of 4 is reduced approximately 2-fold. The minor loss in activity might be attributed to steric hindrance resulting from the addition of the bulky biotin moiety.
Cells treated with different concentrations of 1, 3 or 4 were washed with cold PBS and resuspended in 200 μL of Annexin binding buffer (10 mM HEPES/NaOH pH 7.4; 140 mM NaCl; 2.5 mM CaCl2). Annexin-V and 7-amino-actinomycin (7-AAD) were added and the tubes were incubated at ambient temperature in the dark for 15 mins. Cells were then diluted with 200 μL of Annexin binding buffer and analyzed immediately by flow cytometry. Viable cells were scored as Annexin V negative/7-AAD negative. Percent viability data provided are normalized to untreated control specimens.

[4] = test system: NF-κB p65 subunit at Ser-536; test: Inhibition of NF-κB activity: immunoblot of phosphorylated p65 in primary leukemia cells; type: cell-based, human; conditions: primary leukemia cells treated six hours, FIG. 3A
Experimental: as §1
Cell lysates or pull-down products were diluted in 5×SDS-PAGE sample buffer (10% w/v SDS, 10 mM DDT, 20% glycerol, 0.2M Tris-HCl, pH 6.8, 0.05% w/v bromophenol blue), and run on 8-10% SDSPAGE gels. Protein gels were then transferred to PVDF membrane and blocked with 5% milk in 0.1% TBST (20 mM Tris-HCl pH 7.5, 137 mM NaCl, 0.1% Tween 20), followed by incubation with antibodies against p-p65(ser 536) (Cell Signaling), IKK-β (Cell Signaling), p65 (Santa Cruz), β-actin (Sigma), or SA-HRP probe (Thermo).

glutathione = test: Metabolomic studies of glutathione; type: cell-based
Text: For example, both thioredoxin and glutathione-S-transferase are targets of MMB. […] Furthermore, MMB also directly binds the major components of the HSP family (HSP60, 70, and 90). […] If true, then MMB could also impair the function of one or more HSPs. Taken together with the genomic data, these findings indicate a unique mechanism of action, where agents of this class act by inducing multiple stress response mechanisms and simultaneously impairing those very same mechanisms from functioning properly.

NF-kB p65 subunit = target: T1, NF-kB p65 subunit (Homo sapiens, UniProt Q04206); test: Streptavidin beads pull-down assay with immunoblot; type: binding; conditions: 2 h pretreatment before 4; FIG. 5 lane 5
T1 construct: endogenous in cells; host or cells: primary leukemia (AML) cells
Experimental: Primary human cells were treated with 20 uM 4 for 6 h, followed by lysis and immunoblot analysis using a streptavidin probe. […] Therefore, we tested whether 4 would also bind this protein. […] Cells were then lysed and immuno-precipitated by streptavidin beads. Pulldown products were analyzed by immunoblot to identify specific proteins.
Treated cells were washed three times in cold PBS and lysed in Buffer F (10 mM Tris-HCl pH 7.5, 50 mM NaCl, 30 mM Sodium pyrophosphate, 50 mM NaF, 5 μM ZnCl2, 1% Triton X-100) with freshly added proteinase inhibitors (1 mM PMSF, 1×PIC, 0.1 mM Na3OV4). Lysates were cleared by 10 mins of 12,000 rpm spinning at 4° C. and the supernatant was incubated with SA beads for 2 hours on an end-to-end rotor at 4° C. Beads were then washed sequentially with 1×PBS, high salt wash buffer (500 mM NaCl in 0.1 M pH 5.0 NaOAc), low pH wash buffer (0.1 M pH 2.8 glycine-HCl), and one last time in 1×PBS. After the wash steps, the SA beads were boiled for 10 mins in 2×SDS-PAGE sample buffer to elute down all pull-down products.
Cell lysates or pull-down products were diluted in 5×SDS-PAGE sample buffer (10% w/v SDS, 10 mM DDT, 20% glycerol, 0.2M Tris-HCl, pH 6.8, 0.05% w/v bromophenol blue), and run on 8-10% SDSPAGE gels. […]

IKK-β = target: T2, IKK-β (Homo sapiens, UniProt O14920); test: Streptavidin beads pull-down assay with immunoblot; type: binding
T2 construct: endogenous in cells; host or cells: primary leukemia (AML) cells
T2 sequence (O14920 1-756): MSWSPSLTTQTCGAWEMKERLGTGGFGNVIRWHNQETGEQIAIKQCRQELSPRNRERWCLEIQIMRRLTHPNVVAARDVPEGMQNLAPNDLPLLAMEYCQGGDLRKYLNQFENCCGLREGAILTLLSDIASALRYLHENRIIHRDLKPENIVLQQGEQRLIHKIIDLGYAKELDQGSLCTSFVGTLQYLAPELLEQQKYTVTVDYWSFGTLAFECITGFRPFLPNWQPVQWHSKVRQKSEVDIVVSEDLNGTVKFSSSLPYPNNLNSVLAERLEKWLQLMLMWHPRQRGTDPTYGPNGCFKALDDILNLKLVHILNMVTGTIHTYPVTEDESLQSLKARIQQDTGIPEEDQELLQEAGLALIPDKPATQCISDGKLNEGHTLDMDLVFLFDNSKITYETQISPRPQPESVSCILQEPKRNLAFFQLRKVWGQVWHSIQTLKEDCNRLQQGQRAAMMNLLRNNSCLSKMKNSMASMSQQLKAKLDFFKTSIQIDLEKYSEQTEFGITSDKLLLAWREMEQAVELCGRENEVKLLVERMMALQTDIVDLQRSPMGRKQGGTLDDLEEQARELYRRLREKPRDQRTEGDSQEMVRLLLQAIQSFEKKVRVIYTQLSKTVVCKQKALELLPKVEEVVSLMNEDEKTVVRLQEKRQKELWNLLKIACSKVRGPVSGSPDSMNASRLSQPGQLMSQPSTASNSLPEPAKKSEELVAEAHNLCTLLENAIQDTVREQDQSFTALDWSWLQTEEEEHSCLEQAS
Experimental: Subsequent studies employed 4 as a reagent to identify potential leukemic proteins modified by MMB. Primary human cells were treated with 20 uM 4 for 6 h, followed by lysis and immunoblot analysis using a streptavidin probe. […] Thus, while the chemistry of 4 should be essentially the same in any cell type, there must be intrinsic differences between normal and leukemic cells that lead to the interaction with unique targets. We propose that this differential binding contributes to the leukemia-specific cell death previously described for 1. To further validate the utility of 4 for analysis of protein targets, we performed biochemical pulldown studies. […] Kwok et al. Chem. Bio., 2001, 8, 759. Therefore, we tested whether 4 would also bind this protein. In FIG. 5, primary leukemia cells were pretreated for 2 h with 1 (lanes 2, 5) or biotin control (b.c.) (lanes 3, 6), prior to a 4 h incubation with 4. Cells were then lysed and immuno-precipitated by streptavidin beads. Pulldown products were analyzed by immunoblot to identify specific proteins. […] Kwok et al., Chem. Bio., 2001, 8, 759; Hehner et al., J. Immunol. 1999, 163, 5617.
Treated cells were washed three times in cold PBS and lysed in Buffer F (10 mM Tris-HCl pH 7.5, 50 mM NaCl, 30 mM Sodium pyrophosphate, 50 mM NaF, 5 μM ZnCl2, 1% Triton X-100) with freshly added proteinase inhibitors (1 mM PMSF, 1×PIC, 0.1 mM Na3OV4). […]

T1 sequence (Q04206 whole entry): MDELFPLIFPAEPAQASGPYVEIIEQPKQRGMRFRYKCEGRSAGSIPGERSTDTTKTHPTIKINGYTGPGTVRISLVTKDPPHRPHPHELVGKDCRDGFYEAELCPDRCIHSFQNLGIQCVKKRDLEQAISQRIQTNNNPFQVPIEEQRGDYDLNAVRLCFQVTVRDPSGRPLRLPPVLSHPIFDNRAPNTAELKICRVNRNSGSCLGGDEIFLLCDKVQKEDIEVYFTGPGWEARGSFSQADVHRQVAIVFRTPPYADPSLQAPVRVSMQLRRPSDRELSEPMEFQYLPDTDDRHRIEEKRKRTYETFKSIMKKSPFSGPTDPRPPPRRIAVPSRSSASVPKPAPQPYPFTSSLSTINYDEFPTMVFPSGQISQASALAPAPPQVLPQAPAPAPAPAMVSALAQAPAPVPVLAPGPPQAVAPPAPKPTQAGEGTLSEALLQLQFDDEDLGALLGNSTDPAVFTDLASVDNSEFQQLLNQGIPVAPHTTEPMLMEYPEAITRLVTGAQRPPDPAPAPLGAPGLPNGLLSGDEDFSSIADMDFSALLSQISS

## C/C1=C\CC[C@@]2(C)O[C@@H]2[C@H]2OC(=O)[C@H](CN(C)C)[C@@H]2CC1 [DMAPT, dimethylaminoparthenolide]
[1]; formulated as a fumarate salt
  water solubility relative to PTL: ~1000 fold
[2]
  oral bioavailability: 70%
[2]; doses resulting in serum concentrations of up to 10-fold excess of the biologically active concentration
  tolerability: well tolerated
[3]
  in vivo half-life: approximately two

## C=C1C(=O)O[C@@H]2[C@H]3O[C@]3(C)CC/C=C(\CO)CC[C@@H]12 [MMB, Melampomagnolide B]
Water solubility
  solubility in aqueous media (in words): sparingly soluble
Primary leukemia cells
  concentration achieving efficient induction of cell death: 7.5 µM
  anti-leukemia activity compared to PTL (in words): indistinguishable from PTL; also recorded: identical anti-leukemia activity compared to PTL
Primary leukemia cells; listed as 3
  anti-leukemia activity compared to PTL (in words): potency and selectivity similar to 1
[4]
  concentration at which a significant loss of phosphorylation of NF-κB p65 is observed: 7.5 µM

## C=C1C(=O)O[C@H]2[C@H]1CC/C(C)=C/CC[C@@]1(C)O[C@@H]21 [PTL, parthenolide]
glutathione
  reduction of glutathione: 11.2 fold
NF-kB p65 subunit
  effect of preincubation on binding of p65 to 4: potently reduced binding
IKK-β; 2 h pretreatment before 4, FIG. 5 lane 5
  effect of preincubation on binding of IKK-β to 4: potently reduced binding
[1]
  water solubility (in words): relatively water-insoluble

## C=C1C(=O)O[C@@H]2[C@H]3O[C@]3(C)CC/C=C(\COC(=O)CCCCCCCCCCCNC(=O)CCCC[C@@H]3SC[C@@H]4NC(=O)N[C@@H]43)CC[C@@H]12 [Prodrug 4, 14-[N-(Biotinyl)-12-aminododecanoxy]melampomagnolide B]
IKK-β; primary leukemia cells, 4 h incubation with 4, FIG. 5
  binding of IKK-β in pull-down: one product identified was IKK-β
Primary leukemia cells
  concentration achieving efficient induction of cell death: 20 to 30 µM
Primary leukemia cells; from viability and NF-κB phosphorylation analysis
  reduction of activity relative to 1: approximately 2 fold
[4]
  concentration at which a significant loss of phosphorylation of NF-κB p65 is observed: 20 µM

Reference: patent publication US8884027B2, “Melampomagnolide B derivatives as antileukemic and cytotoxic agents” (University of Rochester, priority 2010, dated 2014)
